Here are results for 25 compounds from US11420958B2, “Aryl and heteroaryl substituted indole compounds” (BRISTOL-MYERS SQUIBB COMPANY, priority 2017, dated 2022).

In general, IC50 refers to the concentration that inhibits the measured activity by half.

What all share (type): cell-based
The target in assay [1] is human TLR7 (Homo sapiens (Human), UniProt Q9NYK1). Briefly: TLR7 inhibition reporter assay (HEK-Blue, SEAP). As to conditions: HEK-Blue cells overexpressing human TLR7, gardiquimod 7.5 μM stimulation. As for the experimental part:
(§1) TLR7/8/9 Inhibition Reporter Assays
(§2) HEK-Blue™-cells (Invivogen) overexpressing human TLR7, TLR8 or TLR9 receptors were used for screening inhibitors of these receptors using an inducible SEAP (secreted embryonic alkaline phosphatase) reporter gene under the control of the IFN-β minimal promoter fused to five NF-κc Band AP-1-binding sites. Briefly, cells are seeded into Greiner 384 well plates (15000 cells per well for TLR7, 20,000 for TLR8 and 25,000 for TLR9) and then treated with test compounds in DMSO to yield a final dose response concentration range of 0.05 nM-50 μM. After a 30 minute compound pre-treatment at room temperature, the cells are then stimulated with a TLR7 ligand (gardiquimod at a final concentration of 7.5 μM), TLR8 ligand (R848 at a final concentration of 15.9 μM) or TLR9 ligand (ODN2006 at final concentration of 5 nM) to activate NF-κB and AP-1 which induce the production of SEAP. After a 22 hour incubation at 37° C., 5% CO2, SEAP levels are determined with the addition of HEK-Bue™ Detection reagent (Invivogen), a cell culture medium that allows for detection of SEAP, according to manufacturer's specifications. The percent inhibition is determined as the % reduction in the HEK-Blue signal present in wells treated with agonist plus DMSO alone compared to wells treated with a known inhibitor.
For orientation: Reporter assays use an easily measured gene product as a stand-in for the process of interest.

Assay [2] addresses human TLR8 (Homo sapiens (Human), UniProt Q9NR97). In words: TLR8 inhibition reporter assay (HEK-Blue, SEAP). As to conditions: HEK-Blue cells overexpressing human TLR8, R848 15.9 μM stimulation. As for the experimental part:
as §1, §2

Assay [3] deals with human TLR9 (Homo sapiens (Human), UniProt Q9NR96). Briefly: TLR9 inhibition reporter assay (HEK-Blue, SEAP). As to conditions: HEK-Blue cells overexpressing human TLR9, ODN2006 5 nM stimulation. As for the experimental part:
as §1, §2

SMILES strings stand for the structures. Some results are limits rather than exact numbers.

human TLR9, sequence (Q9NR96 26-1032): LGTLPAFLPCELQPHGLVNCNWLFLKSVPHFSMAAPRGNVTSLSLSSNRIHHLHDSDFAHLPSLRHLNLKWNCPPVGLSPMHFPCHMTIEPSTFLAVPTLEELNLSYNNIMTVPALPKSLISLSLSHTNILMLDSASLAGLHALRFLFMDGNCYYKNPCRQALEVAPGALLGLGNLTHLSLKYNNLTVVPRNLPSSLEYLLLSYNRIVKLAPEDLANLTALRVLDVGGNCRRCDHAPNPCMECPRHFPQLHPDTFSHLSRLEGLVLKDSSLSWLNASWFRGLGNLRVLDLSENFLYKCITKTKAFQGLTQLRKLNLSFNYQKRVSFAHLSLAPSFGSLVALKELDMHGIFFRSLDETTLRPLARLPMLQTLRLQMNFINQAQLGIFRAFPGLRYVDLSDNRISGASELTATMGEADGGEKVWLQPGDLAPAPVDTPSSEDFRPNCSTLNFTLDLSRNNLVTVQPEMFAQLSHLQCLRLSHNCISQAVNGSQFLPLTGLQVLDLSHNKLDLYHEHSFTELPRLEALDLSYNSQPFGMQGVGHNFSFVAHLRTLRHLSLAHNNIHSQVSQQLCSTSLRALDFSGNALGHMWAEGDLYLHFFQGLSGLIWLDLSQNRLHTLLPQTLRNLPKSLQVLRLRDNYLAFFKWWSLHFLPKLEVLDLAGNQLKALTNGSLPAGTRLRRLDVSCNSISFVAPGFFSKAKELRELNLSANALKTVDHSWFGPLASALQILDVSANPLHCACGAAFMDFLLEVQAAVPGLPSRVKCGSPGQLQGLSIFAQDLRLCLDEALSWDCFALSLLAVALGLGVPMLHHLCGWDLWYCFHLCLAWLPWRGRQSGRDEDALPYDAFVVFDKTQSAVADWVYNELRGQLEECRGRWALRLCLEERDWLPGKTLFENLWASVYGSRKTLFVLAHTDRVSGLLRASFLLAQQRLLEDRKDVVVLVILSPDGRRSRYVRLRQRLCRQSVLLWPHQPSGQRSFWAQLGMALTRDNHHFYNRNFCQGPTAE
human TLR7, sequence (Q9NYK1 27-1049): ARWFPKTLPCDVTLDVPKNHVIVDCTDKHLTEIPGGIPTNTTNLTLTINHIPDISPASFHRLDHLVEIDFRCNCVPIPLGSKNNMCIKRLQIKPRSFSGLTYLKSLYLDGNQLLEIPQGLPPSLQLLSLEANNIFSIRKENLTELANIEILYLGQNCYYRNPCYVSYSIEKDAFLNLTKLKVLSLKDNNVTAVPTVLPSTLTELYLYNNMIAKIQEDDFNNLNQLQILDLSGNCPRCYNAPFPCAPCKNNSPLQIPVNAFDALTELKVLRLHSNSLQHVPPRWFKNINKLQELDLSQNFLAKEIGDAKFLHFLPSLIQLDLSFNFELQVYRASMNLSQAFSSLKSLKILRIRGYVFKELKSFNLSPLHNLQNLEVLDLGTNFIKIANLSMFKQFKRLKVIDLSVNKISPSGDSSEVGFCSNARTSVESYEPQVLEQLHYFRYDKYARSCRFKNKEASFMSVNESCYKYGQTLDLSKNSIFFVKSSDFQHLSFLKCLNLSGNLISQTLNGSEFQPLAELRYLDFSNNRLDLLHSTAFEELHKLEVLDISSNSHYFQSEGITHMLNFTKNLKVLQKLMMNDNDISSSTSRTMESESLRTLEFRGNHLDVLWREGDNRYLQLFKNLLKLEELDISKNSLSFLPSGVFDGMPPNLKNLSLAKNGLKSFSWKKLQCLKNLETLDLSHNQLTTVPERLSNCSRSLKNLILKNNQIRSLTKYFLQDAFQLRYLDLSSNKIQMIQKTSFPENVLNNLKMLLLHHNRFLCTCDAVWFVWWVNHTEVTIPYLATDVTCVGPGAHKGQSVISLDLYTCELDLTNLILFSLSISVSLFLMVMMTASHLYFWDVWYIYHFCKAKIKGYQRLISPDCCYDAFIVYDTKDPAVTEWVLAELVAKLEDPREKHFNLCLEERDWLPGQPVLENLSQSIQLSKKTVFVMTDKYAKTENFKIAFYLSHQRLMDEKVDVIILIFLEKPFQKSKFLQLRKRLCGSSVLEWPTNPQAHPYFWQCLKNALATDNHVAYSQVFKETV
human TLR8, sequence (Q9NR97 27-1041): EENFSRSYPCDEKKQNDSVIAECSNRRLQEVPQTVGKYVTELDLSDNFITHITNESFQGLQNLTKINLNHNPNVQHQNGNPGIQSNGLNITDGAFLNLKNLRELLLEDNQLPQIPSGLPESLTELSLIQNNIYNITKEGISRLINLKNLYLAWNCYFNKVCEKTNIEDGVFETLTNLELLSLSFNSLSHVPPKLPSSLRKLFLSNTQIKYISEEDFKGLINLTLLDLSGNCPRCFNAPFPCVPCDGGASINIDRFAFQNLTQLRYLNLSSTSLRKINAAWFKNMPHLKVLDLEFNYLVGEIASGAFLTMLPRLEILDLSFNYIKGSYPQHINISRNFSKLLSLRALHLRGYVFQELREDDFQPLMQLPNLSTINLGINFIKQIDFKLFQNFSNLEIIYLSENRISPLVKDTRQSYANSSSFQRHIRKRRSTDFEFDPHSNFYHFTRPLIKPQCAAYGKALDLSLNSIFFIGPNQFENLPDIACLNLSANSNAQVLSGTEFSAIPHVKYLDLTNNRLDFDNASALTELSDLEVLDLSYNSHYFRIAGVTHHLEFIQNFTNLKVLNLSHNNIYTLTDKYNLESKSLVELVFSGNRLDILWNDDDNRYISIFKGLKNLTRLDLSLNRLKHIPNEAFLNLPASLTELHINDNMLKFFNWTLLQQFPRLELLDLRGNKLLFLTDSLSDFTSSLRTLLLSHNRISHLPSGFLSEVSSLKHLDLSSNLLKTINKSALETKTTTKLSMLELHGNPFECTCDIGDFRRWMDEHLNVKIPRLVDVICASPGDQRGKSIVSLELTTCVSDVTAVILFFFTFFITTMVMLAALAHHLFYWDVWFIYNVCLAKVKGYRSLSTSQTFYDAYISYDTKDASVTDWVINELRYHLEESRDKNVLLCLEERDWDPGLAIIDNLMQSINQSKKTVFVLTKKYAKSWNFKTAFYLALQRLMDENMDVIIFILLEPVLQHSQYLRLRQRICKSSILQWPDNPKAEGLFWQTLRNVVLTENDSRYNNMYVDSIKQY

For the compound `COc1ccc(-c2[nH]c3ccc(-c4cccc(C(=O)N5CCNCC5)c4)cc3c2C(C)C)cc1OC` [Example 1, 2-(3,4-dimethoxyphenyl)-5-[3-(piperazine-1-carbonyl)phenyl]-3-(propan-2-yl)-1H-indole], the half-inhibitory concentration (IC50) came out at 107 nM in assay [1], 9 nM in assay [2] and 2060 nM in assay [3].

For the compound `COc1ccc(-c2[nH]c3ccc(-c4nnc(C5CCN(C(=O)CN(C)C)CC5)o4)cc3c2C(C)C)cc1OC` [Example 3, 1-(4-{5-[2-(3,4-dimethoxyphenyl)-3-(propan-2-yl)-1H-indol-5-yl]-1,3,4-oxadiazol-2-yl}piperidin-1-yl)-2-(dimethylamino)ethan-1-one], the IC50 in assay [1] stood at 28 nM; in assay [2], 13 nM; in assay [3], 1230 nM.

Take `COc1ccc(-c2[nH]c3ccc(-c4nnc(C5CCN(C(C)C)CC5)o4)cc3c2C(C)C)cc1OC` [Example 4, 2-(3,4-dimethoxyphenyl)-3-(propan-2-yl)-5-{5-[1-(propan-2-yl)piperidin-4-yl]-1,3,4-oxadiazol-2-yl}-1H-indole]: the figures for the IC50 in assay [1], in assay [2] and in assay [3] were 78 nM, 9 nM and 979 nM, respectively.

As for `COc1ccc(-c2[nH]c3ccc(-c4cccc(C(=O)N5CCCN(C)CC5)c4)cc3c2C(C)C)cc1OC` [Example 5, (3-(2-(3,4-dimethoxyphenyl)-3-isopropyl-1H-indol-5-yl)phenyl)(4-methyl-1,4-diazepan-1-yl)methanone], the 50% inhibitory concentration (IC50) came out at 121 nM in assay [1], 6.8 nM in assay [2] and 3290 nM in assay [3].

Take `COc1ccc(-c2[nH]c3ccc(-c4cccc(C(=O)N[C@H]5CC[C@H](N)CC5)c4)cc3c2C(C)C)cc1OC` [Example 6]: the IC50 in assay [1] was found to be 121 nM; in assay [2] it was 42 nM; in assay [3], 2780 nM.

As for `COc1ccc(-c2[nH]c3ccc(-c4cccc(C(=O)N[C@H]5CC[C@H](C(C)(C)O)CC5)c4)cc3c2C(C)C)cc1OC` [Example 7, 3-(2-(3,4-dimethoxyphenyl)-3-isopropyl-1H-indol-5-yl)-N-((1r,4r)-4-(2-hydroxypropan-2-yl)cyclohexyl)benzamide], the results for the IC50 in assay [1], in assay [2] and in assay [3] were 1790 nM, 19 nM and above 50000 nM, respectively.

`COc1ccc(-c2[nH]c3ccc(-c4cccc(C(=O)NC5CCN(C(C)C)CC5)c4)cc3c2C(C)C)cc1OC` [Example 8, 3-(2-(3,4-dimethoxyphenyl)-3-isopropyl-1H-indol-5-yl)-N-(1-isopropylpiperidin-4-yl)benzamide]: the values for the IC50 in assay [1], in assay [2] and in assay [3] were 114 nM, 29 nM and 1810 nM, respectively.

In the case of `COc1ccc(-c2[nH]c3ccc(-c4cccc(C(=O)N5CCN(C(=O)C6CCCO6)CC5)c4)cc3c2CC(F)(F)F)cc1OC` (stereo not drawn) [Example 33, (4-(3-(2-(3,4-dimethoxyphenyl)-3-(2,2,2-trifluoroethyl)-1H-indol-5-yl)benzoyl)piperazin-1-yl)(tetrahydrofuran-2-yl)methanone], the IC50 in assay [1] turned out to be 1330 nM; in assay [2], 53 nM.

In the case of `CC(C)c1c(-c2ccc3nccn3c2)[nH]c2ccc(-c3nnc([C@@H]4CCCNC4)o3)cc12` [Example 244, (R)-2-(2-(imidazo[1,2-a]pyridin-6-yl)-3-isopropyl-1H-indol-5-yl)-5-(piperidin-3-yl)-1,3,4-oxadiazole], the IC50 worked out at 153 nM in assay [1] and 422 nM in assay [2].

`Cc1cc(-c2[nH]c3ccc(-c4nc(C(=O)NC5CCN(C(C)C)CC5)co4)cc3c2C(C)C)cc(C)n1` [Example 249, 2-(2-(2,6-dimethylpyridin-4-yl)-3-isopropyl-1H-indol-5-yl)-N-(1-isopropylpiperidin-4-yl)oxazole-4-carboxamide]: the IC50 stood at 27 nM in assay [1] and 7.5 nM in assay [2].

As for `Cc1cc(-c2[nH]c3ccc(-c4ccc(N5CCN(C(C)C)CC5)nc4)cc3c2C(C)C)ccn1` [Example 302, 3-isopropyl-5-(6-(4-isopropylpiperazin-1-yl)pyridin-3-yl)-2-(2-methylpyridin-4-yl)-1H-indole], the IC50 in assay [2] turned out to be 28 nM; in assay [3] it was 2320 nM.

For `Cc1cc(-c2[nH]c3ccc(-c4nc5c(s4)CCNC5)cc3c2C(C)C)cc(C)n1` [Example 310, 2-(2-(2,6-dimethylpyridin-4-yl)-3-isopropyl-1H-indol-5-yl)-4,5,6,7-tetrahydrothiazolo[4,5-c]pyridine], the IC50 in assay [1] was 3.4 nM; in assay [3], 647 nM.

With `Cc1cc(-c2[nH]c3ccc(-c4ccc(NC(=O)C5CC(=O)N(C)C5)nc4)cc3c2C(C)C)ccn1` (stereo not drawn) [Example 332, N-(5-(3-isopropyl-2-(2-methylpyridin-4-yl)-1H-indol-5-yl)pyridin-2-yl)-1-methyl-5-oxopyrrolidine-3-carboxamide], the figures for the IC50 in assay [1] and in assay [2] were 14 nM and 1.9 nM, respectively.

Take `CCc1c(-c2ccc(OC)c(OC)c2)[nH]c2ccc(-c3cccc(CN4CCN(C)CC4)c3)cc12` [Example 368, 2-(3,4-dimethoxyphenyl)-3-ethyl-5-(3-((4-methylpiperazin-1-yl)methyl)phenyl)-1H-indole]: the figures for the IC50 in assay [1] and in assay [2] were 2530 nM and 230 nM, respectively.

Turning to `CC(C)c1c(-c2ccnc3[nH]ncc23)[nH]c2ccc(-c3ccc(C(C)N4CCOCC4)cc3)cc12` (stereo not drawn) [Example 372, 4-(1-(4-(3-isopropyl-2-(1H-pyrazolo[3,4-b]pyridin-4-yl)-1H-indol-5-yl)phenyl)ethyl)morpholine], the half-maximal inhibitory concentration (IC50) was determined as 250 nM in assay [1] and 13 nM in assay [2].

Regarding `COc1ccc(-c2[nH]c3ccc(-c4ccc(N5CCN(CC(C)C)CC5)nc4)cc3c2C(C)C)cc1OC` [Example 391, 2-(3,4-dimethoxyphenyl)-5-(6-(4-isobutylpiperazin-1-yl)pyridin-3-yl)-3-isopropyl-1H-indole], the IC50 in assay [2] turned out to be 73 nM; in assay [3] it was 4360 nM.

On to `COc1ccc(-c2[nH]c3ccc(-c4ccc(-c5cncc6ccccc56)cc4)cc3c2C(C)C)cc1OC` [Example 407, 4-(4-(2-(3,4-dimethoxyphenyl)-3-isopropyl-1H-indol-5-yl)phenyl)isoquinoline], for which the IC50 in assay [2] was above 50000 nM; in assay [3], 290 nM.

As to `COc1ccc(-c2ccc3[nH]c(-c4ccnc5[nH]ncc45)c(C(C)C)c3c2)cn1` [Example 422, 4-(3-isopropyl-5-(6-methoxypyridin-3-yl)-1H-indol-2-yl)-1H-pyrazolo[3,4-b]pyridine], the figures for the half-maximal inhibitory concentration (IC50) in assay [1] and in assay [2] were 4100 nM and 662 nM, respectively.

In the case of `COc1ccc(-c2[nH]c3ccc(-c4ccnc(N5CCN(Cc6ccsc6)CC5)c4)cc3c2C(C)C)cc1OC` [Example 423, 2-(3,4-dimethoxyphenyl)-3-isopropyl-5-(2-(4-(thiophen-3-ylmethyl)piperazin-1-yl)pyridin-4-yl)-1H-indole], the IC50 was found to be 1400 nM in assay [1] and 8760 nM in assay [3].

Consider `COc1ccc(-c2[nH]c3ccc(-c4ccnc(N5CCN(CCC(F)(F)F)CC5)c4)cc3c2C(C)C)cc1OC` [Example 424, 2-(3,4-dimethoxyphenyl)-3-isopropyl-5-(2-(4-(3,3,3-trifluoropropyl)piperazin-1-yl)pyridin-4-yl)-1H-indole], for which the IC50 in assay [1] is 2590 nM; in assay [3], above 50000 nM.

For `COc1ccc(-c2[nH]c3ccc(-c4ccnc(N5CCN(CCC(C)O)CC5)c4)cc3c2C(C)C)cc1OC` (stereo not drawn) [Example 425, 4-(4-(4-(2-(3,4-dimethoxyphenyl)-3-isopropyl-1H-indol-5-yl)pyridin-2-yl)piperazin-1-yl)butan-2-ol], the IC50 in assay [1] was 1490 nM; in assay [3], 7070 nM.

Take `COc1ccc(-c2[nH]c3ccc(-c4cnc(N5CCN(Cc6ccsc6)CC5)nc4)cc3c2C(C)C)cc1OC` [Example 429, 2-(3,4-dimethoxyphenyl)-3-isopropyl-5-(2-(4-(thiophen-3-ylmethyl)piperazin-1-yl)pyrimidin-5-yl)-1H-indole]: the IC50 in assay [1] was 1280 nM; in assay [3], above 50000 nM.

In the case of `COc1ccc(-c2[nH]c3ccc(-c4cnc(N5CCN(Cc6cccn6C)CC5)nc4)cc3c2C(C)C)cc1OC` [Example 430, 2-(3,4-dimethoxyphenyl)-3-isopropyl-5-(2-(4-((1-methyl-1H-pyrrol-2-yl)methyl)piperazin-1-yl)pyrimidin-5-yl)-1H-indole], the IC50 amounted to 1340 nM in assay [1] and 11900 nM in assay [3].

For `COc1ccc(-c2[nH]c3ccc(-c4cnc(N5CCN(CC(C)C)CC5)n4C)cc3c2C(C)C)cc1OC` [Example 433, 2-(3,4-dimethoxyphenyl)-5-(2-(4-isobutylpiperazin-1-yl)-1-methyl-1H-imidazol-5-yl)-3-isopropyl-1H-indole], the results for the IC50 in assay [1] and in assay [3] were 145 nM and 2110 nM, respectively.

With `COc1ccc(-c2[nH]c3ccc(-c4cnc(Cl)n4C)cc3c2C(C)C)cc1OC` [Example 437, 5-(2-chloro-1-methyl-1H-imidazol-5-yl)-2-(3,4-dimethoxyphenyl)-3-isopropyl-1H-indole], the IC50 in assay [1] stood at 896 nM; in assay [3], 42100 nM.
